Laboratory results from PMC10256809, “Unlocking the potentials of cyanobacterial photosynthesis for directly converting carbon dioxide into glucose” (Nature Communications, 2023).

Experiments:
[1] = molecular target: T1, Glk2 (Synechococcus elongatus, UniProt Q31LC8); assay: PK/LDH-coupled sugar phosphorylation assay, […] nm; assay type: biochemical; conditions: 10 mM sugar, 2.5 mM ATP, 4 mM MgCl2, 20 mM KCl, Tris-HCl pH 7.8
T1 construct: gene Synpcc7942_2111
T1 sequence (Q31LC8 1-302): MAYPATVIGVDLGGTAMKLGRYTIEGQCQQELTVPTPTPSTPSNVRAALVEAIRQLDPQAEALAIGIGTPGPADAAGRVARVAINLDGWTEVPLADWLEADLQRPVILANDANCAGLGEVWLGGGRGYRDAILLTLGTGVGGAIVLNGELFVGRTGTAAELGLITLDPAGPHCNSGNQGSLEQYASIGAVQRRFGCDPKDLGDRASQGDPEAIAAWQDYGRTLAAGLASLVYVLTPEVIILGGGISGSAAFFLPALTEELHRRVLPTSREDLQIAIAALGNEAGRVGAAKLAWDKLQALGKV

[2] = molecular target: T2, Glk1 (Synechococcus elongatus, UniProt Q31RR6); assay: PK/LDH-coupled sugar phosphorylation assay, […] nm; assay type: biochemical; conditions: 10 mM sugar, 2.5 mM ATP, 4 mM MgCl2, 20 mM KCl, Tris-HCl pH 7.8
T2 construct: gene glk
T2 sequence (Q31RR6 1-345): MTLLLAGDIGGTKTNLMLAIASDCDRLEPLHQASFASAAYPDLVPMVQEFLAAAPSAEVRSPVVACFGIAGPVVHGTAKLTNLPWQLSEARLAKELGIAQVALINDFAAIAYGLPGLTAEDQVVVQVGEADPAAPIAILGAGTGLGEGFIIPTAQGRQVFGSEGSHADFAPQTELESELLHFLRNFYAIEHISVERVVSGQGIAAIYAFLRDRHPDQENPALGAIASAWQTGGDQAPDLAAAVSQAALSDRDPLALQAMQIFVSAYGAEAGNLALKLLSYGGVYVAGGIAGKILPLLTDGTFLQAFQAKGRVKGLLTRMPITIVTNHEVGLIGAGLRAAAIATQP

OC[C@H]1OC(O)[C@H](O)[C@@H](O)[C@@H]1O (some centres unmarked) [glucose]
PK/LDH-coupled sugar phosphorylation assay, 340 nm [1]: both the two glucokinases showed phosphorylation activities on some other sugars besides glucose | PK/LDH-coupled sugar phosphorylation assay, 340 nm [2]: both the two glucokinases showed phosphorylation activities on some other sugars besides glucose
